The values below come from patent US6645976B1 (Eli Lilly and Company, priority 1994, dated 2003).

As a reminder, the melting point is the temperature of the solid-liquid transition. The pIC50 is the IC50 on a negative log10 scale, so that one unit is a factor of ten.

pIC50: −log10 of the molar value. Counter-ions that a name gives are not always drawn.

The target of data set [1] is T1, recombinant human secreted phospholipase A2 (Homo sapiens, UniProt P14555).
T1 sequence (P14555 21-144): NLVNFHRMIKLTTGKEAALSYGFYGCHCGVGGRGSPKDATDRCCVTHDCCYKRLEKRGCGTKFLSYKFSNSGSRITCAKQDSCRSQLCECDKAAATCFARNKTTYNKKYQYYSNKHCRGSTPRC
As to the kind of experiment: sPLA2 Chromogenic Assay (Assay 1). The class given is biochemical. Conditions: diheptanoyl thio-PC substrate, pH 7.5, 40° C. for 30 minutes, absorbance at 405 nanometers.
Experimental: The following chromogenic assay procedure was used to identify and evaluate inhibitors of recombinant human secreted phospholipase A2. The assay described herein has been adapted for high volume screening using 96 well microtiter plates.
A measured volume of racemic dipheptanoyl thio PC supplied in chloroform at a concentration of 100 mg/ml is taken to dryness and redissolved in 10 millimolar TRITON X-100™ nonionic detergent aqueous solution. Reaction Buffer is added to the solution, then DTNB to give the Reaction Mixture.
The reaction mixture thus obtained contains 1 mM diheptanoyl thio-PC substrate, 0.29 mm Triton X-100™ detergent, and 0.12 mm DTMB in a buffered aqueous solution at pH 7.5.
1. Add 0.2 ml reaction mixture to all wells;
2. Add 10 ul test compound (or solvent blank) to appropriate wells, mix 20 seconds;
3. Add 50 nanograms of sPLA2 (10 microliters) to appropriate wells;
4. Incubate plate at 40° C. for 30 minutes;
All compounds were tested in triplicate. […] Each sample was titrated in triplicate and result values were averaged for plotting and calculation of IC50 values.

Take `CCc1c(C(=O)C(N)=O)c2cc(OCCCCCC(=O)O)ccn2c1Cc1ccccc1-c1ccccc1`: the melting point was 84 to 94 °C (dec.).
Same read-out and setting: the value for `CCCCCC1CCC(Cc2c(CC)c(C(=O)C(N)=O)c3c(OCC(=O)O)cccn23)CC1` (stereo not shown) (as salt: Na) [Compound 52o, 2-(8-(Carboxymethyloxy)-2-ethyl-3-(4-n-pentylcyclohexylmethyl)indolizin-1-yl)glyoxylamide] was 224 to 225 °C.
Still for that read-out and setting: the value for `CCc1c(CC(N)=O)c2c(OCC(=O)OC)cccn2c1Cc1ccccc1` [Compound 21v, Methyl (3-Benzyl-1-carbamoylmethyl-2-ethylindolizin-8-yloxy)acetate] was 159 to 163 °C.
`CCc1c(CC(N)=O)c2c(OCC(=O)OCc3ccccc3)cccn2c1Cc1cccc(Cl)c1` [Compound 21y, 2-(8-(Benzyloxycarbonylmethyloxy)-3-(m-chlorobenzyl)-2-ethylindolizin-1-yl)acetamide] had a melting point of 157 to 158 °C. In addition, the pIC50 in data set [1] is 6.46.
As for `CCc1c(CC(N)=O)c2c(OCC(=O)O)cccn2c1-c1cccc2ccccc12` [Compound 22w, 2-(8-(Carboxymethyloxy)-2-ethyl-3-(1-naphthyl)indolizin-1-yl)acetamide], the melting point is 129 to 133 °C.
`Cc1c(C(=O)C(N)=O)c2ccccn2c1Cc1ccccc1` [Compound 34, (3-Benzyl-2-methylindolizin-1-yl)glyoxylamide] yielded a melting point of 198 to 199 °C. For the same compound, the pIC50 in data set [1] was 6.05.
The matching figures for `CCc1c(C(=O)C(N)=O)c2c(OCc3ccccc3)cccn2c1Cc1ccccc1` [Compound 35a, (3-Benzyl-8-benzyloxy-2-ethylindolizin-1-yl)glyoxylamide]: 188 to 189 °C and 6.40.
`Cc1c(C(=O)C(N)=O)c2c(OCc3ccccc3)cccn2c1Cc1ccccc1` [Compound 35g, (3-Benzyl-8-benzyloxy-2-methylindolizin-1-yl)glyoxylamide] registered a melting point of 212 to 214 °C. For the same compound, in data set [1], the pIC50 is 7.33.
The corresponding values for `CCOC(=O)COc1cccn2c(Cc3ccccc3)c(CC)c(C(=O)C(N)=O)c12` [Compound 37a, (3-Benzyl-8-(carbethoxymethyloxy)-2-ethylindolizin-1-yl)glyoxylamide] are 191 to 192 °C and 7.36.
The corresponding values for `CCOC(=O)COc1cccn2c(Cc3ccccc3-c3ccccc3)c(CC)c(C(=O)C(N)=O)c12` [Compound 37d, (8-(Carbethoxymethyloxy)-2-ethyl-3-(o-phenylbenzyl)indolizin-1-yl)glyoxylamide] are 127 to 129 °C and 7.89.
`CCOC(=O)COc1cccn2c(Cc3ccccc3)c(C)c(C(=O)C(N)=O)c12` [Compound 37g, (3-Benzyl-8-(carbethoxymethyloxy)-2-methylindolizin-1-yl)glyoxylamide] returned a melting point of 193 to 195 °C. Also, in data set [1], the pIC50 is 7.64.
For `CCOC(=O)COc1cccn2c(Cc3cccc(Cl)c3)c(CC)c(C(=O)C(N)=O)c12` [Compound 37h, (8-(Carbethoxymethyloxy)-3-(m-chlorobenzyl)-2-ethylindolizin-1-yl)glyoxylamide], the melting point lay in the range of 172 to 175 °C.
In turn, `CCc1c(C(=O)C(N)=O)c2c(OCC(=O)OC(C)(C)C)cccn2c1Cc1ccccc1` [Compound 38a, (3-Benzyl-8-(t-butoxycarbonylmethyloxy)-2-ethylindolizin-1-yl)glyoxylamide] yielded a melting point of 161 to 162 °C. Further, the pIC50 in data set [1] is 7.28.
Consider `CCc1c(C(=O)C(N)=O)c2c(OCC(=O)OC)cccn2c1Cc1cccc(C(F)(F)F)c1` [Compound 39i, (8-(Carbmethoxymethyloxy)-2-ethyl-3-(m-trifluoromethylbenzyl)indolizin-1-yl)glyoxylamide], for which the melting point fell in the range of 136 to 137 °C.
For `COC(=O)COc1cccn2c(Cc3ccccc3-c3ccccc3)c(C3CC3)c(C(=O)C(N)=O)c12` [Compound 39k, (8-(Carbmethoxymethyloxy)-2-cyclopropyl-3-(o-phenylbenzyl)indolizin-1-yl)glyoxylamide], the melting point lay in the range of 178 to 179 °C.
In the case of `CCc1c(C(=O)C(=O)N(C)C)c2c(OCC(=O)O)cccn2c1Cc1ccccc1-c1ccccc1` [Compound 40f, (8-(Carboxymethyloxy)-2-ethyl-3-(o-phenylbenzyl)indolizin-1-yl)glyoxyl-N,N-dimethylamide], the melting point lay in the range of 208 to 209 °C. In addition, the pIC50 in data set [1] was less than 4.30.
Turning to `CCc1c(C(=O)C(N)=O)c2c(OCc3ccccc3)cccn2c1Cc1cccs1` [Compound 49k, 2-(8-Benzyloxy-2-ethyl-3-(thiophen-2-ylmethyl)indolizin-1-yl)glyoxylamide], the melting point lay in the range of 191 to 192 °C. In addition, the pIC50 in data set [1] was 6.10.
The corresponding values for `CCCCc1ccc(Cc2c(CC)c(C(=O)C(N)=O)c3c(OC)cccn23)cc1` [Compound 49s, 2-(3-(p-n-Butylbenzyl)-2-ethyl-8-methoxyindolizin-1-yl)glyoxylamide] are 195 to 196 °C and 6.44.
The corresponding values for `CCc1c(C(=O)C(N)=O)c2c(OCC(=O)OC)cccn2c1CC1CCCCC1` [Compound 51b, 2-(8-(Carbomethoxymethyloxy)-3-cyclohexylmethyl-2-ethylindolizin-1-yl)glyoxylamide] are 149 to 150 °C and 6.51.
The matching figures for `CCc1c(C(=O)C(N)=O)c2c(OCC(=O)OC)cccn2c1CC1CCCC1` [Compound 51c, 2-(8-(Carbomethoxymethyloxy)-3-cyclopentylmethyl-2-ethylindolizin-1-yl)glyoxylamide]: 158 to 159 °C and 6.37.
The compound `CCc1c(C(=O)C(N)=O)c2c(OCC(=O)OC)cccn2c1CC1CCCCCC1` [Compound 51d, 2-(8-(Carbomethoxymethyloxy)-3-cycloheptylmethyl-2-ethylindolizin-1-yl)glyoxylamide] returned a melting point of 147 to 148 °C. Also, in data set [1], the negative-log IC50 (pIC50) is 6.26.
The compound `CCCC(CCC)Cc1c(CC)c(C(=O)C(N)=O)c2c(OCC(=O)OC)cccn12` [Compound 51f, 2-(8-(Carbomethoxymethyloxy)-2-ethyl-3-(2-propylpentyl)indolizin-1-yl)glyoxylamide] displayed a melting point of 114 to 115 °C. The pIC50 in data set [1] is 6.23.
The corresponding values for `CCc1c(C(=O)C(N)=O)c2c(OCC(=O)OC)cccn2c1Cc1ccc2ccccc2c1` [Compound 51g, 2-(8-(Carbomethoxymethyloxy)-2-ethyl-3-(naphth-2-ylmethyl)indolizin-1-yl)glyoxylamide] are 195 to 196 °C and 6.77.
The matching figures for `CCc1c(C(=O)C(N)=O)c2c(OCC(=O)OC)cccn2c1Cc1ccccc1Cc1ccccc1` [Compound 51j]: 190 to 191 °C and 7.70.
Turning to `CCc1c(C(=O)C(N)=O)c2c(OCC(=O)OC)cccn2c1-c1cccs1` [Compound 51k], the melting point turned out to be 182 °C.
Consider `CCc1c(C(=O)C(N)=O)c2c(OCC(=O)OC)cccn2c1Cc1ccccc1[N+](=O)[O-]` [Compound 51n, 2-(2-Ethyl-8-(carbomethoxymethyloxy)-3-(o-nitrobenzyl)indolizine-1-yl)glyoxylamide], for which the melting point was in the range of 156 to 157 °C.
Still for that read-out and setting: the value for `COC(=O)COc1cccn2c(CC34CC5CC(CC(C5)C3)C4)c(C)c(C(=O)C(N)=O)c12` [Compound 51p, 2-(3-(Adamant-1-ylmethyl)-8-(carbomethoxymethyloxy)-2-methylindolizin-1-yl)glyoxylamide] was 191 to 192 °C; that for `COC(=O)COc1cccn2c(Cc3ccccc3)c(C3CC3)c(C(=O)C(N)=O)c12` [Compound 51r, 2-(3-Benzyl-8-carbomethoxymethyloxy-2-cyclopropylindolizin-1-yl)-glyoxylamide] was 186 to 188 °C; that for `NC(=O)C(=O)c1c(C2CC2)c(Cc2ccccc2-c2ccccc2)n2ccc(OCCCC(=O)O)cc12` [Compound 67b, 2-(7-(3-Carboxypropyloxy)-2-cyclopropyl-3-(o-phenylbenzyl)indolizin-1-yl)glyoxylamide] was 112 to 121 °C (dec.).
The same measure, in the same setting: the value for `CCOC(=O)COc1ccn2c(Cc3ccccc3-c3ccccc3)c(CC)c(C(=O)C(N)=O)c2c1` [Compound 68b, 2-(7-(Carboethoxymethyloxy)-2-ethyl-3-(o-phenylbenzyl)indolizin-1-yl)glyoxylamide] was 119 to 121 °C; that for `CCc1c(CC(N)=O)c2cc(OCCCC(=O)O)ccn2c1Cc1ccccc1-c1ccccc1` [Compound 71b, 2-(7-(3-Carboxypropyloxy)-2-ethyl-3-(o-phenylbenzyl)indolizin-1-yl)acetamide] was 105 to 120 °C (dec.).
As for `CSc1c(C(=O)C(N)=O)c2c(OCC(=O)O)cccn2c1Cc1ccccc1-c1ccccc1` [Compound 83, 2-(8-(Carboxymethyloxy)-2-methylthio-3-(o-phenylbenzyl)indolizin-lyl)-glyoxylamide], the pIC50 in data set [1] is 7.80.
`COC(=O)CNc1cccn2c(Cc3ccccc3)c(C)c(C(=O)C(N)=O)c12` [Compound 89a, 2-(3-Benzyl-8-methoxycarbonylmethylamino-2-methyl-indolizin-1-yl)-glyoxylamide]: the melting point is 293 °C (dec.).
`COC(=O)CNc1cccn2c(CC3CCCCC3)c(C)c(C(=O)C(N)=O)c12` [Compound 89b, 2-(8-methoxycarbonylmethylamino-3-cyclohexylmethyl-2-methyl-indolizin-1-yl)-glyoxylamide]: the melting point was in the range of 173 to 177 °C.
Regarding `Cc1c(C(=O)C(N)=O)c2c(NCC(=O)O)cccn2c1CC1CCCCC1` [Compound 90b, 2-(8-Carboxymethylamino-3-cyclohexylmethyl-2-methyl-indolizin-1-yl)-glyoxylamide], the melting point is more than 300 °C.
